We go through ten compounds from US12577234B2, “Antagonists of the muscarinic acetylcholine receptor M4” (Vanderbilt University, priority 2017, dated 2026).

This assay concerns the target T1, human mAChR M4 (Homo sapiens, UniProt P08173).
T1 construct: expressed in transfected cells; host or cells: CHO-K1 (ATCC), stably co-expressing chimeric G protein Gqi5
T1 sequence (P08173 1-479): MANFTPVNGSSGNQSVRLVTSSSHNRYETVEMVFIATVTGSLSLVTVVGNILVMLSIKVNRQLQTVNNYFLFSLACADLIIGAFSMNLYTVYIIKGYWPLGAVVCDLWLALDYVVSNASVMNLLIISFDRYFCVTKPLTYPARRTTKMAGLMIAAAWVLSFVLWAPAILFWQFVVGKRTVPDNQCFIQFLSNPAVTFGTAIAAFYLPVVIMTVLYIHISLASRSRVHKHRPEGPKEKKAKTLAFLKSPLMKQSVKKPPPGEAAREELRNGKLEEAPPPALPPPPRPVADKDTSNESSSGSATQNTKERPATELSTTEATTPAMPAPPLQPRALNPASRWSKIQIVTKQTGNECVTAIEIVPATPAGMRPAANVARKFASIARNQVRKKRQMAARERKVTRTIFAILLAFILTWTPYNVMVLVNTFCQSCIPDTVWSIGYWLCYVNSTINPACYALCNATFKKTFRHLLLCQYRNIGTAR
Description: mAChR M4 cell-based functional assay (calcium mobilization, EC80 acetylcholine), human M4. Particulars: for IC50: M4/Gqi5/CHO-K1 cells, decrease of EC80 acetylcholine response; for Emin: human M4, % ACh maximum at 30 μM. The method, boiled down:
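CHO-K1 cells stably expressing human M4 with chimeric Gqi5; intracellular calcium rise read on FDSS as fluorescence static ratio at 1 Hz. Compounds in 10-point 1:3 dilution series; IC50 taken as concentration-dependent decrease of the EC80 acetylcholine response, four-parameter logistic fit.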

`COc1ccc(-c2ccc(N[C@H]3C[C@@H]4CN(CC5CCOCC5)C[C@@H]4C3)nn2)cc1` [Compound 201, (3aR,5s,6aS)-N-[6-(4-methoxyphenyl)pyridazin-3-yl]-2-(tetrahydropyran-4-ylmethyl)-3,3a,4,5,6,6a-hexahydro-1H-cyclopenta[c]pyrrol-5-amine]: under “Table 10”, the “Human M4 Emin” value was determined as 7% and the IC50 came to 3.54 nM. With `Cc1nn(C)cc1-c1ccc(N[C@H]2C[C@@H]3CN(Cc4ccc5c(c4)OCO5)C[C@@H]3C2)nn1` [compound 15], where the note is “Table 9”, the IC50 worked out at 0.6 nM. As to `Fc1ccc(Cl)c(-c2ccc(O[C@@H]3C[C@@H]4CN(CC5CCCCC5)C[C@@H]4C3)nn2)c1` [Compound 56, (3aR,5r,6aS)-5-[6-(2-chloro-5-fluoro-phenyl)pyridazin-3-yl]oxy-2-(cyclohexylmethyl)-3,3a,4,5,6,6a-hexahydro-1H-cyclopenta[c]pyrrole], under “Table 9”, the IC50 amounted to 154 nM and the Emin is 3.63%.

With `CN(C)C(=O)c1ccc(-c2ccc(N[C@H]3C[C@@H]4CN(CC5CCOCC5)C[C@@H]4C3)nn2)cc1` [Compound 207, 4-[6-[[(3aR,5s,6aS)-2-(tetrahydropyran-4-ylmethyl)-3,3a,4,5,6,6a-hexahydro-1H-cyclopenta[c]pyrrol-5-yl]amino]pyridazin-3-yl]-N,N-dimethyl-benzamide], where the note is “Table 10”, the “Human M4 Emin” value is 16% and the IC50 was determined as 44.8 nM. With `Cc1cnn(C)c1-c1ccc(NC[C@H]2C[C@@H]3CN(CC4CC5C=CC4C5)C[C@@H]3C2)nn1` (stereo partly drawn) [Compound 64, N-[[(3aR,5s,6aS)-2-(5-bicyclo[2.2.1]hept-2-enylmethyl)-3,3a,4,5,6,6a-hexahydro-1H-cyclopenta[c]pyrrol-5-yl]methyl]-6-(2,4-dimethylpyrazol-3-yl)pyridazin-3-amine], where the note is “Table 9”, the IC50 is 7.9 nM and the Emin worked out at 3.74%. For `Cc1nn(C)cc1-c1ccc(N[C@H]2C[C@@H]3CN(CC4CCCOC4)C[C@@H]3C2)nn1` (stereo partly drawn) [Compound 6, (3aR,5s,6aS)-N-[6-(1,3-dimethylpyrazol-4-yl)pyridazin-3-yl]-2-(tetrahydropyran-3-ylmethyl)-3,3a,4,5,6,6a-hexahydro-1H-cyclopenta[c]pyrrol-5-amine], in that order: 11.4 nM and 3.33%. As for `Cc1cnn(C)c1-c1ccc(N[C@H]2C[C@@H]3CN(CC4CCCCC4)C[C@@H]3C2)nn1` [Compound 20, (3aR,5s,6aS)-2-(cyclohexylmethyl)-N-[6-(2,4-dimethylpyrazol-3-yl)pyridazin-3-yl]-3,3a,4,5,6,6a-hexahydro-1H-cyclopenta[c]pyrrol-5-amine], for the setting “Table 9”, the IC50 came to 1 nM and the Emin was 7.16%. For `Cc1nn(C)cc1-c1ccc(N[C@H]2C[C@@H]3CN(Cc4ccccn4)C[C@@H]3C2)nn1` [Compound 9, (3aR,5s,6aS)-N-[6-(1,3-dimethylpyrazol-4-yl)pyridazin-3-yl]-2-(2-pyridylmethyl)-3,3a,4,5,6,6a-hexahydro-1H-cyclopenta[c]pyrrol-5-amine], under “Table 9”, the IC50 worked out at 45.8 nM and the Emin is recorded as 3.96%. For `Cc1cnn(C)c1-c1ccc(NCCC2C[C@@H]3CN(CC4CCCOC4)C[C@@H]3C2)nn1` (stereo partly drawn) [Compound 122, N-[2-[(3aR,6aS)-2-(tetrahydropyran-3-ylmethyl)-3,3a,4,5,6,6a-hexahydro-1H-cyclopenta[c]pyrrol-5-yl]ethyl]-6-(2,4-dimethylpyrazol-3-yl)pyridazin-3-amine], in that order: 27.3 nM and 4.29%. On the same counts, the results for `Cc1nn(C)cc1-c1ccc(N[C@@H]2C[C@@H]3CN(CC4CCCCCC4)C[C@@H]3C2)c(F)c1F` [Compound 44, (3aR,5r,6aS)-2-(cycloheptylmethyl)-N-[4-(1,3-dimethylpyrazol-4-yl)-2,3-difluoro-phenyl]-3,3a,4,5,6,6a-hexahydro-1H-cyclopenta[c]pyrrol-5-amine] are 2150 nM and 5.01%.
